Measured values: US11236055B2 (Venenum Biodesign, LLC, priority 2016, dated 2022)

What was measured:
[1] = molecular target: T1, human TGR5 receptor (Homo sapiens, UniProt Q8TDU6); assay: Human TGR5 cAMP production assay; format: cell-based; details: human TGR5, luminescent cAMP assay; coded A-D; read-out: Human TGR5 Lum. cAMP Activity (EC50)
T1 construct: host or cells: CHO-K1 (hTGR5-CHO cells)
T1 sequence (Q8TDU6 1-330): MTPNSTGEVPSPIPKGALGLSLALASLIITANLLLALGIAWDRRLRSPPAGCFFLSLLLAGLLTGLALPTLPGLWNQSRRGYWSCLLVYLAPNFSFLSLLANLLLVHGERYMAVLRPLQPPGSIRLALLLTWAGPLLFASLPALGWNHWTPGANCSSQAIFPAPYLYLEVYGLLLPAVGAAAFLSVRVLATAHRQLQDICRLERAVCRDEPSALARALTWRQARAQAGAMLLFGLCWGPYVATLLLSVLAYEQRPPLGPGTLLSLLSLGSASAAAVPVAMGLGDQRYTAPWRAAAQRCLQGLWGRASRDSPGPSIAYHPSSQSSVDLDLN
In short: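 Intracellular cAMP read by luminescent enzyme-complementation (XS+) after overnight development, following 1 h room-temperature compound treatment of hTGR5-CHO-K1 cells in IBMX plus anti-cAMP antibody. Compounds tested as half-log dilution series; EC50 derived.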

[2] = molecular target: T2, mouse TGR5 receptor (Mus musculus, UniProt Q80SS6); assay: Mouse TGR5 cAMP production assay (HTRF, Cisbio cAMP HiRange); format: cell-based; details: HEK293-EBNA cells overexpressing mouse TGR5, HTRF cAMP HiRange; coded A-D
T2 construct: expressed in transfected cells; host or cells: HEK293-EBNA (293 c18, ATCC CRL10852), Hygromycin B selection
T2 sequence (Q80SS6 1-329): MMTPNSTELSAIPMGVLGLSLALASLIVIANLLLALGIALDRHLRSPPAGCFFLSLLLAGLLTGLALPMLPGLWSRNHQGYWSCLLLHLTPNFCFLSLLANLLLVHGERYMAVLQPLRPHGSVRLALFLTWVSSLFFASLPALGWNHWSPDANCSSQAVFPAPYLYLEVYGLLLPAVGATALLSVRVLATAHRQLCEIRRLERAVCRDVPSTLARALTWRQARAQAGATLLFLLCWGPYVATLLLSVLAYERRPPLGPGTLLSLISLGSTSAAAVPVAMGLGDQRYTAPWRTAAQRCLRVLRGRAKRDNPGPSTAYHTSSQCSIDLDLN
In short: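 cAMP read by HTRF competition after 1 h room-temperature compound exposure of mouse TGR5-overexpressing HEK293-EBNA cells. Cells were suspended in serum-free DMEM containing 500 μM IBMX; compounds ran as 12-point half-log dilutions in duplicate; EC50 derived.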

EC50 [1] [µM]	EC50 [2] [µM]	Structure (SMILES)
0.1 to 0.999	0.1 to 0.999	CC(=O)N(CCCCN([C@@H](C)c1cccc(-c2ccncc2C)c1)S(=O)(=O)c1cccc(Cl)c1C)CCC(=O)O [Compound 34, (S)-3-(N-(4-(3-chloro-2-methyl-N-(1-(3-(3-methylpyridin-4-yl)phenyl)ethyl)phenylsulfonamido)butyl)acetamido)propanoic acid]
< 0.1	1 to 30	Cc1cnccc1-c1cccc(C(C)(C)N(CCCN)S(=O)(=O)c2cccc(Cl)c2C)c1 [Compound 23, N-(3-aminopropyl)-3-chloro-2-methyl-N-(2-(3-(3-methylpyridin-4-yl)phenyl)propan-2-yl)benzenesulfonamide]
< 0.1	0.1 to 0.999	CCc1cnccc1-c1cccc([C@H](C)N(CCCC(=O)NCCN)S(=O)(=O)c2cccc(Cl)c2C)c1 [Compound 21AS, (S)-N-(2-aminoethyl)-4-(3-chloro-N-(1-(3-(3-ethylpyridin-4-yl)phenyl)ethyl)-2-methylphenylsulfonamido)butanamide]
0.1 to 0.999	1 to 30	Cc1cnccc1-c1cccc(CCNS(=O)(=O)c2ccccc2C(F)(F)F)c1 [Compound 5BD, N-(3-(3-methylpyridin-4-yl)phenethyl)-2-(trifluoromethyl)benzenesulfonamide]
< 0.1	< 0.1	Cc1cnccc1-c1cccc(C(C)(C)NS(=O)(=O)c2cccc(Cl)c2Cl)c1 [Compound 2BV]
< 0.1	0.1 to 0.999	Cc1cnccc1-c1cccc(C2CCCCN2S(=O)(=O)c2ccccc2C(F)(F)F)c1 (centres unmarked) [Compound 54, 3-methyl-4-(3-(1-((2-(trifluoromethyl)phenyl)sulfonyl)piperidin-2-yl)phenyl)pyridine]
0.1 to 0.999	< 0.1	Cc1cnccc1-c1cccc([C@H](C)N(CCCC(=O)NS(=O)(=O)CCC(=O)O)S(=O)(=O)c2cccc(Cl)c2C)c1 [Compound 20BW, (S)-3-(N-(4-(3-chloro-2-methyl-N-(1-(3-(3-methylpyridin-4-yl)phenyl)ethyl)phenylsulfonamido)butanoyl)sulfamoyl)propanoic acid]
< 0.1	0.1 to 0.999	Cc1cnccc1-c1cccc([C@H](C)N(CCCC(=O)NCCS(N)(=O)=O)S(=O)(=O)c2cccc(Cl)c2C)c1 [Compound 20AJ, (S)-4-(3-chloro-2-methyl-N-(1-(3-(3-methylpyridin-4-yl)phenyl)ethyl)phenylsulfonamido)-N-(2-sulfamoylethyl)butanamide]
< 0.1	< 0.1	CCc1cnccc1-c1cccc([C@H](CCCC#N)NS(=O)(=O)c2ccccc2C(F)(F)F)c1 [Compound 6AC, (S)-N-(4-cyano-1-(3-(3-ethylpyridin-4-yl)phenyl)butyl)-2-(trifluoromethyl)benzenesulfonamide]
0.1 to 0.999	1 to 30	Cc1cnccc1-c1cccc(CCN(CCCNC(=O)NCS(=O)(=O)O)S(=O)(=O)c2cccc(Cl)c2C)c1 [Compound 29AD, (3-(3-(3-chloro-2-methyl-N-(3-(3-methylpyridin-4-yl)phenethyl)phenylsulfonamido)propyl)ureido)methanesulfonic acid]
0.1 to 0.999	1 to 30	Cc1c(Cl)cccc1S(=O)(=O)N[C@@H](C)c1cccc(-n2ccncc2=O)c1 [Compound 12, (S)-3-chloro-2-methyl-N-(1-(3-(2-oxopyrazin-1(2H)-yl)phenyl)ethyl)benzenesulfonamide]
< 0.1	< 0.1	CCc1cnccc1-c1cccc([C@H](C)N(CCCCC(=O)O)S(=O)(=O)c2cccc(Cl)c2C)c1 [Compound 16AG, (S)-5-(3-chloro-N-(1-(3-(3-ethylpyridin-4-yl)phenyl)-ethyl)-2-methylphenyl-sulfonamido)pentanoic acid]
< 0.1	< 0.1	CCc1cnccc1-c1cccc([C@H](C)NS(=O)(=O)c2ccccc2C(F)(F)F)c1 [Compound 5AQ, (S)-N-(1-(3-(3-ethylpyridin-4-yl)phenyl)ethyl)-2-(trifluoromethyl)benzenesulfonamide]
< 0.1	0.1 to 0.999	Cc1cnccc1-c1cccc([C@H](C)N(CCCCC(=O)O)S(=O)(=O)c2cccc(Cl)c2C)c1 [Compound 16AF, (S)-5-(3-chloro-2-methyl-N-(1-(3-(3-methylpyridin-4-yl)phenyl)ethyl)phenylsulfonamido)pentanoic acid]
< 0.1	0.1 to 0.999	COC(=O)CS(=O)(=O)NCCOCCNC(=O)CCCCN([C@@H](C)c1cccc(-c2ccncc2C)c1)S(=O)(=O)c1cccc(Cl)c1C [Compound 26AC]
< 0.1	0.1 to 0.999	Cc1cnccc1-c1cccc(C2CCCN2S(=O)(=O)c2ccccc2C(F)(F)F)c1 (racemic) [Compound 41, (+/−) 3-Methyl-4-(3-(1-((2-(trifluoromethyl)phenyl)sulfonyl)pyrrolidin-2-yl)phenyl)pyridine]
0.1 to 0.999	< 0.1	COc1cccc(S(=O)(=O)N2CCN(C(=O)CS(=O)(=O)O)CC2c2cccc(-c3ccncc3C)c2)c1 (centres unmarked) [Compound 49AB, 2-(4-((3-methoxyphenyl)sulfonyl)-3-(3-(3-methylpyridin-4-yl)phenyl)piperazin-1-yl)-2-oxoethanesulfonic acid]
1 to 30	1 to 30	CN(C)c1cc(-c2cccc(C(C)(C)NS(=O)(=O)c3ccccc3C(F)(F)F)c2)ccn1 [Compound 6AB, N-(2-(3-(2-(dimethylamino)-pyridin-4-yl)phenyl)propan-2-yl)-2-(trifluoromethyl)benzenesulfonamide]
0.1 to 0.999	0.1 to 0.999	Cc1cnccc1-c1cccc([C@H](C)N(CCOCC(=O)O)S(=O)(=O)c2cccc(Cl)c2C)c1 [Compound 16AM, (S)-2-(2-(3-chloro-2-methyl-N-(1-(3-(3-methylpyridin-4-yl)phenyl)ethyl)phenylsulfonamido)ethoxy)acetic acid]
1 to 30	0.1 to 0.999	Cc1cnccc1-c1cccc(C(CCC(=O)O)NS(=O)(=O)c2ccccc2C(F)(F)F)c1 (centres unmarked) [Compound 19, 4-(3-(3-methylpyridin-4-yl)phenyl)-4-(2-(trifluoromethyl)phenylsulfonamido)butanoic acid]
< 0.1	< 0.1	CCc1cnccc1-c1cccc(C2CN(C(=O)CN(C)CC(=O)O)CCN2S(=O)(=O)c2cccc(Cl)c2C)c1 (centres unmarked) [Compound 46AC, 2-((2-(4-((3-chloro-2-methylphenyl)sulfonyl)-3-(3-(3-ethylpyridin-4-yl)phenyl)piperazin-1-yl)-2-oxoethyl)(methyl)amino)acetic acid]
< 0.1	< 0.1	Cc1cnccc1-c1cccc([C@H](C)NS(=O)(=O)c2cccc(Cl)c2C)c1 [Compound 7]
< 0.1	0.1 to 0.999	CCOC(=O)CCN/C(=N/C#N)NCCCN(C(C)(C)c1cccc(-c2ccncc2C)c1)S(=O)(=O)c1cccc(Cl)c1C [Compound 25A, Ethyl (E)-3-(3-(3-((3-chloro-2-methyl-N-(2-(3-(3-methylpyridin-4-yl)phenyl)propan-2-yl)phenyl)sulfonamido)propyl)-2-cyanoguanidino)propanoate]
1 to 30	1 to 30	CC(=O)Nc1cc(-c2cccc(C(C)(C)NS(=O)(=O)c3cccc(C(F)(F)F)c3)c2)ccn1 [Compound 9, N-(4-(3-(2-(3-(trifluoromethyl)phenylsulfonamido)propan-2-yl)phenyl)pyridin-2-yl)acetamide]
0.1 to 0.999	0.1 to 0.999	Cc1cnccc1-c1cccc(CN(CCCNC(=O)NCS(=O)(=O)O)S(=O)(=O)c2cccc(Cl)c2C)c1 [Compound 28AI, (3-(3-(3-chloro-2-methyl-N-(3-(3-methylpyridin-4-yl)benzyl)phenylsulfonamido)propyl)ureido)methanesulfonic acid]
< 0.1	0.1 to 0.999	COc1cnccc1-c1cccc(C(C)(C)NS(=O)(=O)c2cc(Cl)ccc2Cl)c1 [Compound 2BE]
< 0.1	< 0.1	Cc1cnccc1-c1cccc(C(C)(C)N(CCCC(=O)N[C@@H](C)C(=O)O)S(=O)(=O)c2cccc(Cl)c2C)c1 [Compound 21AF, (S)-2-(4-(3-chloro-2-methyl-N-(2-(3-(3-methylpyridin-4-yl)phenyl)propan-2-yl)phenylsulfonamido)butanamido)propanoic acid]
1 to 30	1 to 30	Cc1cnccc1-c1cccc([C@H](C)N(CCC(=O)O)S(=O)(=O)c2cccc(Cl)c2C)c1 [Compound 16AK, (S)-3-(3-chloro-2-methyl-N-(1-(3-(3-methylpyridin-4-yl)phenyl)ethyl)phenylsulfonamido)propanoic acid]
